Tests used:
[1] = Effect of temperature (and pH) on the stability of the solution (purity); type: physicochemical; conditions: 7% solution in water
[2] = Effect of concentration on the stability of the solution (purity over time); conditions: at 5° C. in 15% acetone

CCN(CC)CCOC(=O)c1cc(-c2ccc(F)cc2F)ccc1OC(C)=O.Cl [2-(diethylamino)ethyl 5-(2,4-difluorophenyl)-2-acetoxybenzoate•HCl]
Stability of the solution at a temperature higher than 40° C. and a pH lower than 3 or greater than 6 [1]: not stable | Purity at day 0 ([2]; 0.01 wt %): 98.2% | Purity at day 3 ([2]; 0.01 wt %): 93.9% | Purity at day 7 ([2]; 0.01 wt %): 88.1% | Purity at day 15 ([2]; 0.01 wt %): 80.3% | Purity at day 22 ([2]; 0.01 wt %): 73.7% | Purity at day 28 ([2]; 0.01 wt %): 67.9% | Purity at day 60 ([2]; 0.01 wt %): 48.1% | Purity at day 90 ([2]; 0.01 wt %): 30.0% | Purity at day 0 ([2]; 0.1 wt %): 98.3% | Purity at day 3 ([2]; 0.1 wt %): 95.1% | Purity at day 7 ([2]; 0.1 wt %): 93.1% | Purity at day 15 ([2]; 0.1 wt %): 89.0% | Purity at day 22 ([2]; 0.1 wt %): 85.3% | Purity at day 28 ([2]; 0.1 wt %): 82.3% | Purity at day 60 ([2]; 0.1 wt %): 70.5% | Purity at day 90 ([2]; 0.1 wt %): 61.2% | Purity at day 0 ([2]; 1 wt %): 98.4% | Purity at day 3 ([2]; 1 wt %): 97.0% | Purity at day 7 ([2]; 1 wt %): 95.9% | Purity at day 15 ([2]; 1 wt %): 94.0% | Purity at day 22 ([2]; 1 wt %): 92.2% | Purity at day 28 ([2]; 1 wt %): 89.7% | Purity at day 60 ([2]; 1 wt %): 79.4% | Purity at day 90 ([2]; 1 wt %): 71.9% | Purity at day 0 ([2]; 3 wt %): 98.5% | Purity at day 3 ([2]; 3 wt %): 97.7% | Purity at day 7 ([2]; 3 wt %): 96.6% | Purity at day 15 ([2]; 3 wt %): 94.9% | Purity at day 22 ([2]; 3 wt %): 92.1% | Purity at day 28 ([2]; 3 wt %): 91.2% | Purity at day 60 ([2]; 3 wt %): 84.4% | Purity at day 90 ([2]; 3 wt %): 79.2% | Purity at day 0 ([2]; 5 wt %): 98.6% | Purity at day 3 ([2]; 5 wt %): 98.2% | Purity at day 7 ([2]; 5 wt %): 97.8% | Purity at day 15 ([2]; 5 wt %): 97.3% | Purity at day 22 ([2]; 5 wt %): 96.1% | Purity at day 28 ([2]; 5 wt %): 95.5% | Purity at day 60 ([2]; 5 wt %): 94.5% | Purity at day 90 ([2]; 5 wt %): 93.9% | Purity at day 0 ([2]; 7 wt %): 98.7% | Purity at day 3 ([2]; 7 wt %): 98.4% | Purity at day 7 ([2]; 7 wt %): 98.4% | Purity at day 15 ([2]; 7 wt %): 98.0% | Purity at day 22 ([2]; 7 wt %): 97.5% | Purity at day 28 ([2]; 7 wt %): 97.2% | Purity at day 60 ([2]; 7 wt %): 96.2% | Purity at day 90 ([2]; 7 wt %): 95.8% | Purity at day 0 ([2]; 8 wt %): 98.6% | Purity at day 3 ([2]; 8 wt %): 98.5% | Purity at day 7 ([2]; 8 wt %): 98.3% | Purity at day 15 ([2]; 8 wt %): 98.1% | Purity at day 22 ([2]; 8 wt %): 97.4% | Purity at day 28 ([2]; 8 wt %): 97.1% | Purity at day 60 ([2]; 8 wt %): 96.0% | Purity at day 90 ([2]; 8 wt %): 95.9% | Purity at day 0 ([2]; 10 wt %): 98.7% | Purity at day 3 ([2]; 10 wt %): 98.5% | Purity at day 7 ([2]; 10 wt %): 98.5% | Purity at day 15 ([2]; 10 wt %): 98.2% | Purity at day 22 ([2]; 10 wt %): 97.7% | Purity at day 28 ([2]; 10 wt %): 97.3% | Purity at day 60 ([2]; 10 wt %): 96.7% | Purity at day 90 ([2]; 10 wt %): 96.1% | Purity at day 0 ([2]; 15 wt %): 98.6% | Purity at day 3 ([2]; 15 wt %): 98.4% | Purity at day 7 ([2]; 15 wt %): 98.4% | Purity at day 15 ([2]; 15 wt %): 98.3% | Purity at day 22 ([2]; 15 wt %): 97.5% | Purity at day 28 ([2]; 15 wt %): 97.2% | Purity at day 60 ([2]; 15 wt %): 96.5% | Purity at day 90 ([2]; 15 wt %): 96.2% | Purity at day 0 ([2]; 20 wt %): 98.7% | Purity at day 3 ([2]; 20 wt %): 98.5% | Purity at day 7 ([2]; 20 wt %): 98.5% | Purity at day 15 ([2]; 20 wt %): 98.3% | Purity at day 22 ([2]; 20 wt %): 98.0% | Purity at day 28 ([2]; 20 wt %): 97.1% | Purity at day 60 ([2]; 20 wt %): 96.6% | Purity at day 90 ([2]; 20 wt %): 96.0% | Purity at day 0 ([2]; 30 wt %): 98.5% | Purity at day 3 ([2]; 30 wt %): 98.5% | Purity at day 7 ([2]; 30 wt %): 98.4% | Purity at day 15 ([2]; 30 wt %): 98.1% | Purity at day 22 ([2]; 30 wt %): 97.9% | Purity at day 28 ([2]; 30 wt %): 97.3% | Purity at day 60 ([2]; 30 wt %): 96.7% | Purity at day 90 ([2]; 30 wt %): 96.2% | Purity at day 0 ([2]; 50 wt %): 98.7% | Purity at day 3 ([2]; 50 wt %): 98.7% | Purity at day 7 ([2]; 50 wt %): 98.5% | Purity at day 15 ([2]; 50 wt %): 98.3% | Purity at day 22 ([2]; 50 wt %): 97.8% | Purity at day 28 ([2]; 50 wt %): 97.2% | Purity at day 60 ([2]; 50 wt %): 96.9% | Purity at day 90 ([2]; 50 wt %): 96.3% | Stability when the concentration is 0.1% or lower [2]: not stable

From US20230157952A1, “METHOD FOR IMPROVING THE STABILITY OF A PHARMACEUTICAL COMPOSITION COMPRISING A HIGH PENETRATION DRUG, AND THE PHARMACEUTICAL COMPOSITION OBTAINED THEREFROM” (Techfields Inc., priority 2020, published 2023)
